Source: patent US8791148B2, “Substituted benzimidazolone derivatives, medicaments comprising them and their use” (AbbVie Deutschland GmbH & Co. KG, priority 2006, dated 2014)

Molecular target: T1, human vasopressin V1b receptor (Homo sapiens, UniProt P47901)
T1 construct: expressed in transfected cells; host or cells: CHO-K1 (cell line hV1b-3H2_CHO), membrane preparation
T1 sequence (P47901 1-424): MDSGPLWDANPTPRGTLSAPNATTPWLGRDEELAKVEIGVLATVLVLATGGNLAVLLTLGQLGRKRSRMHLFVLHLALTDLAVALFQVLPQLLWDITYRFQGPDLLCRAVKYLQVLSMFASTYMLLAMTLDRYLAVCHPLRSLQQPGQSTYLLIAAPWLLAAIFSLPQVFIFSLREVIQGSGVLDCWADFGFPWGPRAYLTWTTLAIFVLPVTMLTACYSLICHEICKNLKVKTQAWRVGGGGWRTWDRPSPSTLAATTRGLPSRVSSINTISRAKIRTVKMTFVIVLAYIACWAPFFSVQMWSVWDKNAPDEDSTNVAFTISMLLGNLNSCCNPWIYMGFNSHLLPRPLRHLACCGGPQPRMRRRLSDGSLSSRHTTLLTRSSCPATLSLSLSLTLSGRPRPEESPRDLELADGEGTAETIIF
Test: Vasopressin V1b receptor binding assay
Details: membranes from CHO-K1 cells with stably expressed human V1b receptors; displacement of 1.5 nM 3H-AVP; read-out: V1b receptor affinity (affinity constant Ki)
Protocol: Vasopressin V1b Receptor Binding Assay:
The test substances were dissolved in a concentration of 10^−2 M in DMSO and further diluted to 5×10^−4 M to 5×10^−9 M in DMSO. This series of DMSO predilutions was diluted 1:10 with assay buffer. The substance concentration was again diluted 1:5 in the assay mixture (2% DMSO in the mixture).
The membrane pellet was again homogenized and centrifuged as described and then taken up in 50 mM Tris-HCl, pH 7.4, homogenized and stored in aliquots frozen in liquid nitrogen at −190° C.
The incubation buffer was: 50 mM Tris, 10 mM MgCl2, 0.1% BSA, pH 7.4. […] The nonspecific binding was determined with 1 uM AVP (Bachem #H1780). All determinations were carried out as triplicate determinations. After incubation (60 minutes at room temperature), the free radioligand was removed by vacuum filtration (Skatron cell harvester 7000) through Wathman GF/B glass fiber filter mats, and the filters were transferred into scintillation vials. The liquid scintillation measurement took place in a Tricarb model 2000 or 2200CA instrument (Packard). Conversion of the measured cpm into dpm was carried out with the aid of a standard quench series.
The binding parameters were calculated by nonlinear regression in SAS.
The above assay was used to measure the affinities of the compounds of the invention for the human vasopressin V1b receptor and to determine the affinity constants (Ki).

SMILES | Ki
N#Cc1ccc2c(c1)n(C(C(=O)N1CCN(c3ccncc3)CC1)c1ccccc1)c(=O)n2S(=O)(=O)c1cccc2cccnc12 (centres unmarked) [Example 50, 2-Oxo-3-[2-oxo-1-phenyl-2-(4-pyridin-4-ylpiperazin-1-yl)ethyl]-1-(quinoline-8-sulfonyl)-2,3-dihydro-1H-benzimidazole-5-carbonitrile] | 500 to 10000 nM
N#Cc1ccc(S(=O)(=O)n2c(=O)n(C(C(=O)N3CCN(c4ccncc4)CC3)c3ccccc3)c3cc(C#N)ccc32)cc1 (centres unmarked) [Example 51, 1-(4-Cyanobenzenesulfonyl)-2-oxo-3-[2-oxo-1-phenyl-2-(4-pyridin-4-ylpiperazin-1-yl)ethyl]-2,3-dihydro-1H-benzimidazole-5-carbonitrile] | 500 to 10000 nM
CCCN1CCN(C2CCN(C(=O)C(c3ccccc3)n3c(=O)n(S(=O)(=O)c4ccc(OC)cc4)c4ccc(C#N)cc43)C2)CC1 (centres unmarked) [Example 52, 1-(4-Methoxybenzenesulfonyl)-2-oxo-3-{2-oxo-1-phenyl-2-[3-(4-propylpiperazin-1-yl)-pyrrolidin-1-yl]-ethyl}-2,3-dihydro-1H-benzimidazole-5-carbonitrile] | < 100 nM
O=C(C(c1ccccc1)n1c(=O)n(S(=O)(=O)c2cccc3cccnc23)c2ccc(Cl)cc21)N1CCN(c2ccncc2)CC1 (centres unmarked) [Example 53, 5-Chloro-3-[2-oxo-1-phenyl-2-(4-pyridin-4-ylpiperazin-1-yl)ethyl]-1-(quinoline-8-sulfonyl)-1,3-dihydrobenzimidazol-2-one] | < 100 nM
N#Cc1ccc(S(=O)(=O)n2c(=O)n(C(C(=O)N3CCN(c4ccncc4)CC3)c3ccccc3)c3cc(Cl)ccc32)cc1 (centres unmarked) [Example 57, 4-{5-Chloro-2-oxo-3-[2-oxo-1-phenyl-2-(4-pyridin-4-ylpiperazin-1-yl)-ethyl]-2,3-dihydrobenzimidazole-1-sulfonyl}-benzonitrile] | < 100 nM
COc1ccc(S(=O)(=O)n2c(=O)n(C(C(=O)N3CCN(c4ccncc4)CC3)c3ccccc3)c3cc(Cl)ccc32)cc1 (centres unmarked) [Example 58, 5-Chloro-1-(4-methoxybenzenesulfonyl)-3-[2-oxo-1-phenyl-2-(4-pyridin-4-ylpiperazin-1-yl)ethyl]-1,3-dihydrobenzimidazol-2-one] | < 100 nM
COc1ccc(S(=O)(=O)n2c(=O)n(C(C(=O)N3CCN(c4ccncc4)CC3)c3ccccc3)c3cc(Cl)c(Cl)cc32)c(OC)c1 (centres unmarked) [Example 59, 5,6-Dichloro-1-(2,4-dimethoxybenzenesulfonyl)-3-[2-oxo-1-phenyl-2-(4-pyridin-4-ylpiperazin-1-yl)ethyl]-1,3-dihydrobenzoimidaz] | 500 to 10000 nM
COc1ccc(S(=O)(=O)n2c(=O)n(C(C(=O)N3CCN(C4CCN(C)CC4)CC3)c3ccccc3)c3ccccc32)cc1 (centres unmarked) [Example 60, 1-(4-Methoxybenzenesulfonyl)-3-{2-[4-(1-methylpiperidin-4-yl)piperazin-1-yl]-2-oxo-1-phenyl-ethyl}-1,3-dihydrobenzimidazol-2-one] | 500 to 10000 nM
CN1CCN(C2CCN(C(=O)C(c3ccccc3)n3c(=O)n(S(=O)(=O)c4ccc(C#N)cc4)c4ccc(Cl)cc43)CC2)CC1 (centres unmarked) [Example 65, 4-(5-Chloro-3-{2-[4-(4-methylpiperazin-1-yl)piperidin-1-yl]-2-oxo-1-phenylethyl}-2-oxo-2,3-dihydrobenzimidazole-1-sulfonyl)benzonitrile] | 100 to 500 nM
CN1CCC(N2CCN(C(=O)C(c3ccccc3)n3c(=O)n(S(=O)(=O)c4ccc(C#N)cc4)c4ccc(Cl)cc43)CC2)CC1 (centres unmarked) [Example 68, 4-(5-Chloro-3-{2-[4-(1-methylpiperidin-4-yl)piperazin-1-yl]-2-oxo-1-phenylethyl}-2-oxo-2,3-dihydrobenzimidazol-1-sulfonyl)benzonitrile] | 100 to 500 nM
COc1ccc(S(=O)(=O)n2c(=O)n(C(C(=O)N3CCN(C4CCN(C)CC4)CC3)c3ccccc3)c3cc(Cl)c(Cl)cc32)c(OC)c1 (centres unmarked) [Example 69, 5,6-Dichloro-1-(2,4-dimethoxybenzenesulfonyl)-3-{2-[4-(1-methylpiperidin-4-yl)piperazin-1-yl]-2-oxo-1-phenyl-ethyl}-1,3-dihydrobenzimidazol-2-one] | 500 to 10000 nM
COc1ccc(S(=O)(=O)n2c(=O)n(C(C(=O)N3CCC(N4CCN(C)CC4)CC3)c3ccccc3)c3ccccc32)c(OC)c1 (centres unmarked) [Example 72, 1-(2,4-Dimethoxybenzenesulfonyl)-3-{2-[4-(4-methylpiperazin-1-yl)piperidin-1-yl]-2-oxo-1-phenylethyl}-1,3-dihydrobenzimidazol-2-one] | 500 to 10000 nM
COc1ccc(S(=O)(=O)n2c(=O)n(C(C(=O)N3CCN(c4ccncc4)CC3)c3ccccc3)c3ccc(Cl)cc32)cc1 (centres unmarked) [Example 73, 5-Chloro-3-(4-methoxybenzenesulfonyl)-1-[2-oxo-1-phenyl-2-(4-pyridin-4-ylpiperazin-1-yl)-ethyl]-1,3-dihydrobenzimidazol-2-one] | 100 to 500 nM

The next lines start with the values.

Ki | SMILES
500 to 10000 nM | O=C(C(c1ccccc1)n1c(=O)n(S(=O)(=O)c2ccc(C(F)(F)F)cc2)c2ccc(Cl)cc21)N1CCN(c2ccncc2)CC1 (centres unmarked) [Example 49, 5-Chloro-3-[2-oxo-1-phenyl-2-(4-pyridin-4-ylpiperazin-1-yl)ethyl]-1-(4-trifluoromethylbenzenesulfonyl)-1,3-dihydrobenzimidazol-2-one]
100 to 500 nM | COc1ccc(S(=O)(=O)n2c(=O)n(C(C(=O)N3CCN(C4CCN(C)CC4)CC3)c3ccccc3)c3cc(Cl)ccc32)cc1 (centres unmarked) [Example 55, 5-Chloro-1-(4-methoxybenzenesulfonyl)-3-{2-[4-(1-methylpiperidin-4-yl)piperazin-1-yl]-2-oxo-1-phenylethyl}-1,3-dihydrobenzimidazol-2-one]
100 to 500 nM | COc1ccc(S(=O)(=O)n2c(=O)n(C(C(=O)N3CCN(c4ccncc4)CC3)c3ccccc3)c3cc(Cl)ccc32)c(OC)c1 (centres unmarked) [Example 56, 5-Chloro-1-(2,4-dimethoxybenzenesulfonyl)-3-[2-oxo-1-phenyl-2-(4-pyridin-4-ylpiperazin-1-yl)-ethyl]-1,3-dihydrobenzimidazol-2-one]
500 to 10000 nM | N#Cc1ccc(S(=O)(=O)n2c(=O)n(C(C(=O)N3CCN(c4ccncc4)CC3)c3ccccc3)c3cc(Cl)c(Cl)cc32)cc1 (centres unmarked) [Example 62, 4-{5,6-Dichloro-2-oxo-3-[2-oxo-1-phenyl-2-(4-pyridin-4-ylpiperazin-1-yl)-ethyl]-2,3-dihydrobenzimidazol-1-sulfonyl}benzonitrile]
100 to 500 nM | COc1ccc(S(=O)(=O)n2c(=O)n(C(C(=O)N3CCC(N4CCN(C)CC4)CC3)c3ccccc3)c3cc(Cl)ccc32)c(OC)c1 (centres unmarked) [Example 63, 5-Chloro-1-(2,4-dimethoxybenzenesulfonyl)-3-{2-[4-(4-methylpiperazin-1-yl)piperidin-1-yl]-2-oxo-1-phenylethyl}-1,3-dihydrobenzimidazol-2-one]
100 to 500 nM | COc1ccc(S(=O)(=O)n2c(=O)n(C(C(=O)N3CCC(N4CCN(C)CC4)CC3)c3ccccc3)c3cc(Cl)ccc32)cc1 (centres unmarked) [Example 64, 5-Chloro-1-(4-methoxybenzenesulfonyl)-3-{2-[4-(4-methylpiperazin-1-yl)piperidin-1-yl]-2-oxo-1-phenylethyl}-1,3-dihydrobenzimidazol-2-one]
500 to 10000 nM | COc1ccc(S(=O)(=O)n2c(=O)n(C(C(=O)N3CCN(c4ccncc4)CC3)c3ccccc3)c3ccc(Cl)cc32)c(OC)c1 (centres unmarked) [Example 66, 5-Chloro-3-(2,4-dimethoxybenzenesulfonyl)-1-[2-oxo-1-phenyl-2-(4-pyridin-4-ylpiperazin-1-yl)ethyl]-1,3-dihydrobenzimidazol-2-one]
500 to 10000 nM | COc1ccc(S(=O)(=O)n2c(=O)n(C(C(=O)N3CCN(C4CCN(C)CC4)CC3)c3ccccc3)c3ccccc32)c(OC)c1 (centres unmarked) [Example 67, 1-(2,4-Dimethoxybenzenesulfonyl)-3-{2-[4-(1-methylpiperidin-4-yl)piperazin-1-yl]-2-oxo-1-phenylethyl}-1,3-dihydrobenzimidazol-2-one]
500 to 10000 nM | COc1ccc(S(=O)(=O)n2c(=O)n(C(C(=O)N3CCN(c4ccncc4)CC3)c3ccccc3)c3ccccc32)c(OC)c1 (centres unmarked) [Example 70, 1-(2,4-Dimethoxybenzenesulfonyl)-3-[2-oxo-1-phenyl-2-(4-pyridin-4-ylpiperazin-1-yl)ethyl]-1,3-dihydrobenzimidazol-2-one]
500 to 10000 nM | CN1CCC(N2CCN(C(=O)C(c3ccccc3)n3c(=O)n(S(=O)(=O)c4cccc5cccnc45)c4cc(Cl)ccc43)CC2)CC1 (centres unmarked) [Example 71, 5-Chloro-1-{2-[4-(1-methylpiperidin-4-yl)piperazin-1-yl]-2-oxo-1-phenyl-ethyl}-3-(quinoline-8-sulfonyl)-1,3-dihydrobenzimidazol-2-one]
